Experimental data reported in US11661440B2 (priority 2015, dated 2023).
pIC50: −log10 of the molar value. Entries after “also recorded” stand apart in the source; their conditions may differ. Ends that are not written are not given here.

Assays:
NMDA receptor = type: cell-based, rat
[1] = target: GluN2B recombinant subunit (Rattus norvegicus, UniProt Q00960); details: cited from earlier work
[2] = target: NMDA receptor GluN2B subunit (Mus musculus, UniProt Q01097); details: cited from earlier work
Chain of NMDA receptor GluN2B subunit (Q01097 whole entry, looked up): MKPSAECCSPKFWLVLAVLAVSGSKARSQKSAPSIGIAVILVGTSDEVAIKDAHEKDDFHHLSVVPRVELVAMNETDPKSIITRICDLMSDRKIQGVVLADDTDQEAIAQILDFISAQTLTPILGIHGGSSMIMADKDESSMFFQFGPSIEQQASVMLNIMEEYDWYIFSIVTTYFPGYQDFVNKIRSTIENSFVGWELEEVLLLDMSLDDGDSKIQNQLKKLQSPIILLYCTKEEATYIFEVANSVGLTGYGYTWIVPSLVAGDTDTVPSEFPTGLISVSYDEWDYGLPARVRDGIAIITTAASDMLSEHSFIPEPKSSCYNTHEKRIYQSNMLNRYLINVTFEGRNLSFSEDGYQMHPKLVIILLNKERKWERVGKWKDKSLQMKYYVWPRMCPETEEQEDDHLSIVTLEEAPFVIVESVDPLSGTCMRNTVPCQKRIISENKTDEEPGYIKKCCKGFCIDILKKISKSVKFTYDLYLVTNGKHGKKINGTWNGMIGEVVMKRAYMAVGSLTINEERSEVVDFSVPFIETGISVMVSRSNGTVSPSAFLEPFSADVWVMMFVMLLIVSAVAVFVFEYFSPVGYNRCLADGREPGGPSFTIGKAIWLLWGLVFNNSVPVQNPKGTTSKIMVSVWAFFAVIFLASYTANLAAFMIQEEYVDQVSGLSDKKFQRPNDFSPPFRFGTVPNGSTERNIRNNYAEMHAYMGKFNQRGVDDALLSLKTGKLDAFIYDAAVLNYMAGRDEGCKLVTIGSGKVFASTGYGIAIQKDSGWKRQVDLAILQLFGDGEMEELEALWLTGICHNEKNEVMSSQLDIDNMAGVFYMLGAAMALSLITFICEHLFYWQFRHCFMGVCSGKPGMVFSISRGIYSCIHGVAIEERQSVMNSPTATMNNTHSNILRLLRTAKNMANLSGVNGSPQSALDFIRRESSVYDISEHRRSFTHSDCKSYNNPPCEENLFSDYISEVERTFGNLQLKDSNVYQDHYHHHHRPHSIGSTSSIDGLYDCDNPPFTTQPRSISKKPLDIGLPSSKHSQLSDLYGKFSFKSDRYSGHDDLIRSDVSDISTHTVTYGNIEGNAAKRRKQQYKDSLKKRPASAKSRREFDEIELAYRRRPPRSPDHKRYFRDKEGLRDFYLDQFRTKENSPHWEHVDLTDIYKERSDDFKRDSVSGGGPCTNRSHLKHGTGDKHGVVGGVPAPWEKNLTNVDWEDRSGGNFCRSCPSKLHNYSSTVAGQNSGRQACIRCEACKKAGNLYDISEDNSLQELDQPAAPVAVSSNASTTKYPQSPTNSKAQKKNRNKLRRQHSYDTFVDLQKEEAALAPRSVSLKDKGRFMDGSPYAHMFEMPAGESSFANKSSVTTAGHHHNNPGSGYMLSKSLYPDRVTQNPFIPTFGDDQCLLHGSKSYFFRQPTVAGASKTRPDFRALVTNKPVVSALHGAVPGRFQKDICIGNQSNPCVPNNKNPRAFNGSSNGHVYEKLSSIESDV

Chain of GluN2B recombinant subunit (Q00960 27-1482, other chains not shown): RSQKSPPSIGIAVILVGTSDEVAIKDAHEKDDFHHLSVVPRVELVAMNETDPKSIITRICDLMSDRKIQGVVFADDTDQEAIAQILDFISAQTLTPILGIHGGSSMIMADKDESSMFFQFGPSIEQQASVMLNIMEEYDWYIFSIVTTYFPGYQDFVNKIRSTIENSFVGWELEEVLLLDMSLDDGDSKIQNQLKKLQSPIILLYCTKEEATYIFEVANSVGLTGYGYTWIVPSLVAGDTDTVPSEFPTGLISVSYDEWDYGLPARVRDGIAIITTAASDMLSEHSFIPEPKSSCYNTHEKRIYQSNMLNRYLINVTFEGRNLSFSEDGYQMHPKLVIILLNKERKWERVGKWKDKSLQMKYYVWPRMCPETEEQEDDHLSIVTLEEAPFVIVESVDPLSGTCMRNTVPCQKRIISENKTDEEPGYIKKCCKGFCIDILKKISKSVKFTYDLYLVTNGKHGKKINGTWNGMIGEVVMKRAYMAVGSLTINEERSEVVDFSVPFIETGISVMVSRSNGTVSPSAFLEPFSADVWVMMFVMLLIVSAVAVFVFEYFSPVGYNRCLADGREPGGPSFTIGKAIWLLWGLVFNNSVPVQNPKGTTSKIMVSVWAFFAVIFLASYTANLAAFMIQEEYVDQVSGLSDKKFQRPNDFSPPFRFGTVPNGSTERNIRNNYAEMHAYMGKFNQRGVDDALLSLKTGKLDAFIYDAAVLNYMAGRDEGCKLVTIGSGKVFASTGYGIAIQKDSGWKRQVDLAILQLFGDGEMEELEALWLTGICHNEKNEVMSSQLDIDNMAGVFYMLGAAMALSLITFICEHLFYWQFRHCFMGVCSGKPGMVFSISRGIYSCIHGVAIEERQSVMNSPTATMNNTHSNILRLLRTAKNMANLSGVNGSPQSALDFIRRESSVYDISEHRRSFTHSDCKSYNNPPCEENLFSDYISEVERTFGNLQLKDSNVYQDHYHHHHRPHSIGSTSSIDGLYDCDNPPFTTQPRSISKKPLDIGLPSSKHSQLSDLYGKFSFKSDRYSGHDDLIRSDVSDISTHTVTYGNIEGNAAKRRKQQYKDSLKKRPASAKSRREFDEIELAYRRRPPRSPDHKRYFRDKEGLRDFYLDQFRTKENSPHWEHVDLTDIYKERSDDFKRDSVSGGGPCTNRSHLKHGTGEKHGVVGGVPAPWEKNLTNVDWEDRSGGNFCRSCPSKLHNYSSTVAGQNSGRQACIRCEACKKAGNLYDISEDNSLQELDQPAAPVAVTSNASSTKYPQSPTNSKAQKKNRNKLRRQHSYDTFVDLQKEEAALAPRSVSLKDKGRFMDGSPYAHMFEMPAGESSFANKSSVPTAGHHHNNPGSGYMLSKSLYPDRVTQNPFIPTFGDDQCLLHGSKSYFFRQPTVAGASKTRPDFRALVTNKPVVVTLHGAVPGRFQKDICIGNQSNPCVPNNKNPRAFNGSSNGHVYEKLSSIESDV

## C[C@]12N[C@H](Cc3ccccc31)c1ccccc12 [(+)-MK-801, dizocilpine]
NMDA receptor
  blocking of input current due to stimulation by peptide SEQ ID NO: 4: more than 90%
  blocking of the response (in words): almost total blocking of the response
  reduction in the response obtained by stimulation with NMDA/glycine: more than 50%

## C[C@@H](CN1CCC(Cc2ccccc2)CC1)[C@@H](O)c1ccc(O)cc1 [Ro 25-9681]
NMDA receptor
  blocking of the response evoked by NMDA/glycine: less than 50%
[1]
  pIC50: 8.05

## GEγγLQγNQγLIRγKSN-NH2 [conantokin-G]
[2]
  pIC50: 6.30
[1]
  pIC50: 7.00

## KLGMRSELQIDNDQDAD [SEQ ID NO: 4]
NMDA receptor
  agonist effect: input current evoked by the peptide (in words): evoked input current via the NMDA receptor; also recorded: an input current was found
